Data: PubChem BioAssay (NCI)
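Results reflect a 48-hour exposure of cells in 96-well plates to compound at five concentrations. TGI marks complete inhibition of growth.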

Experiments:
Assay in all cases: NCI tumour cell line growth inhibition, 48 h
[1] = system: ACHN renal
[2] = system: MOLT-4 leukemia
[3] = system: UO-31 renal
[4] = system: SN12C renal
[5] = system: OVCAR-3 ovarian
[6] = system: SK-OV-3 ovarian
[7] = system: U251 CNS
[8] = system: IGROV1 ovarian
[9] = system: MALME-3M melanoma
[10] = system: HL-60(TB) leukemia
[11] = system: HOP-62 NSCLC
[12] = system: LOX IMVI melanoma
[13] = system: UACC-62 melanoma
[14] = system: HCT-15 colon
[15] = system: HCC-2998 colon
[16] = system: KM20L2 colon
[17] = system: HOP-92 NSCLC
[18] = system: DMS 114 small cell lung
[19] = system: SR leukemia
[20] = system: KM12 colon
[21] = system: SK-MEL-2 melanoma
[22] = system: 786-0 renal
[23] = system: SNB-75 CNS
[24] = system: TK-10 renal
[25] = system: CAKI-1 renal
[26] = system: EKVX NSCLC
[27] = system: SNB-19 CNS
[28] = system: A549 NSCLC
[29] = system: OVCAR-4 ovarian
[30] = system: SW-620 colon
[31] = system: NCI-H23 lung
[32] = system: RXF 393 renal
[33] = system: SK-MEL-5 melanoma
[34] = system: SF-268 CNS
[35] = system: OVCAR-5 ovarian
[36] = system: K-562 leukemia
[37] = system: HCT-116 colon
[38] = system: NCI-H226 lung
[39] = system: NCI-H522 lung
[40] = system: SK-MEL-28 melanoma
[41] = system: M14 melanoma
[42] = system: SNB-78 CNS
[43] = system: MCF7 breast
[44] = system: NCI/ADR-RES ovarian
[45] = system: OVCAR-8 ovarian
[46] = system: SF-295 CNS
[47] = system: DU-145 prostate
[48] = system: NCI-H460 lung
[49] = system: SF-539 CNS
[50] = system: HT29 colon
[51] = system: UACC-257 melanoma
[52] = system: MDA-MB-231 breast
[53] = system: BT-549 breast
[54] = system: T-47D breast
[55] = system: COLO 205 colon
[56] = system: RPMI-8226 leukemia
[57] = system: PC-3 prostate
[58] = system: MDA-MB-435
[59] = system: HS 578T breast
[60] = system: CCRF-CEM leukemia
[61] = system: A498 renal
[62] = system: MDA-N

## CCC1CNC(=O)CC1CC(=O)OC (stereo unspecified)
[1]
  TGI: > 100 µM
[2]
  TGI: > 100 µM
[3]
  TGI: > 100 µM
[4]
  TGI: > 100 µM
[5]
  TGI: > 100 µM
[6]
  TGI: > 100 µM
[7]
  TGI: > 100 µM
[8]
  TGI: > 100 µM
[9]
  TGI: > 100 µM
[10]
  TGI: > 100 µM
[11]
  TGI: > 100 µM
[12]
  TGI: > 100 µM
[13]
  TGI: > 100 µM
[14]
  TGI: > 100 µM
[15]
  TGI: > 100 µM
[16]
  TGI: > 100 µM
[17]
  TGI: > 100 µM
[18]
  TGI: > 100 µM
[19]
  TGI: > 100 µM
[20]
  TGI: > 100 µM
[21]
  TGI: > 100 µM
[22]
  TGI: > 100 µM
[23]
  TGI: > 100 µM
[24]
  TGI: > 100 µM
[25]
  TGI: > 100 µM
[26]
  TGI: > 100 µM
[27]
  TGI: > 100 µM
[28]
  TGI: > 100 µM
[29]
  TGI: > 100 µM
[30]
  TGI: > 100 µM
[31]
  TGI: > 100 µM
[32]
  TGI: > 100 µM
[33]
  TGI: > 100 µM
[34]
  TGI: > 100 µM
[35]
  TGI: > 100 µM
[36]
  TGI: > 100 µM
[37]
  TGI: > 100 µM
[38]
  TGI: > 100 µM
[39]
  TGI: > 100 µM
[40]
  TGI: > 100 µM
[41]
  TGI: > 100 µM
[42]
  TGI: > 100 µM

## COc1ccc(-c2cc(C(O)C3CCCCN3)c3ccccc3n2)cc1 (stereo unspecified)
[43]
  TGI: 14.2 µM
[44]
  TGI: 39 µM
[45]
  TGI: 29.5 µM
[1]
  TGI: 24.4 µM
[46]
  TGI: 28.4 µM
[2]
  TGI: 13.6 µM
[3]
  TGI: 8.54 µM
[47]
  TGI: 20.5 µM
[4]
  TGI: 23.7 µM
[48]
  TGI: 10.4 µM
[5]
  TGI: 27.8 µM
[6]
  TGI: 27.3 µM
[49]
  TGI: 23.5 µM
[7]
  TGI: 14.5 µM
[50]
  TGI: 11.5 µM
[8]
  TGI: 22.4 µM
[9]
  TGI: 28.9 µM
[10]
  TGI: 26.4 µM
[11]
  TGI: 24.3 µM
[12]
  TGI: 16 µM
[13]
  TGI: 12 µM
[14]
  TGI: 34.2 µM
[15]
  TGI: 3.7 µM
[51]
  TGI: 4.48 µM
[17]
  TGI: 13.1 µM
[52]
  TGI: 9.83 µM
[19]
  TGI: 1.46 µM
[20]
  TGI: 15.3 µM
[21]
  TGI: 18.5 µM
[22]
  TGI: 20.6 µM
[23]
  TGI: 17.1 µM
[24]
  TGI: 23.7 µM
[25]
  TGI: 18.4 µM
[26]
  TGI: 20.2 µM
[27]
  TGI: 28.1 µM
[28]
  TGI: 27.8 µM
[29]
  TGI: 27.5 µM
[53]
  TGI: 32.2 µM
[30]
  TGI: 25.2 µM
[31]
  TGI: 31.6 µM
[54]
  TGI: 14.1 µM
[32]
  TGI: 11.3 µM
[33]
  TGI: 17.2 µM
[55]
  TGI: 3.54 µM
[34]
  TGI: 27.7 µM
[56]
  TGI: 5.82 µM
[35]
  TGI: 24.8 µM
[57]
  TGI: 16.9 µM
[36]
  TGI: 8.24 µM
[58]
  TGI: 15.1 µM
[59]
  TGI: 40.3 µM
[37]
  TGI: 21.5 µM
[60]
  TGI: 9.08 µM
[38]
  TGI: 20.9 µM
[39]
  TGI: 22.4 µM
[40]
  TGI: 5.49 µM
[61]
  TGI: 25.4 µM
[41]
  TGI: 4.61 µM
[62]
  TGI: 16.7 µM
